Measured values published in the NIST ThermoML archive (doi:10.1021/je030218b).

What was measured:
[1] = refractive index (Na D-line) (dimensionless); xn = mol fraction of the nth substance listed; settings: 298.15 K, 101 kPa, Liquid, Standard Abbe refractometry
[2] = xn = mol fraction of the nth substance listed; settings: 298.15 K, 101 kPa, Liquid
[3] = refractive index (Na D-line) (dimensionless); settings: 298.15 K; 101.33 kPa; Liquid; Standard Abbe refractometry
[4] = Liquid; for mass density / speed of sound: 298.15 K, 101.33 kPa

CC(C)CO [2-methyl-1-propanol] + CCOC(C)=O
Settings | refractive index, [1] | speed of sound, [2] [m/s]
x2 = 0.052 | 1.39253 | 1186.1
x2 = 0.104 | 1.39136 | 1184.4
x2 = 0.155 | 1.39012 | 1182.9
x2 = 0.206 | 1.3889 | 1181.5
x2 = 0.258 | 1.38753 | 1179.3
x2 = 0.308 | 1.38611 | 1177.5
x2 = 0.359 | 1.3847 | 1175.6
x2 = 0.41 | 1.3833 | 1174.2
x2 = 0.46 | 1.38169 | 1171.3
x2 = 0.51 | 1.3803 | 1169
x2 = 0.56 | 1.37842 | 1165.2
x2 = 0.609 | 1.37674 | 1163
x2 = 0.659 | 1.37505 | 1160.4
x2 = 0.708 | 1.37301 | 1158.2
x2 = 0.757 | 1.37111 | 1155.3
x2 = 0.806 | 1.36884 | 1152.8
x2 = 0.855 | 1.36675 | 1150.1
x2 = 0.904 | 1.36431 | 1147.4
x2 = 0.952 | 1.36189 | 1144.7

CCCCCO [pentan-1-ol]
Settings | mass density [kg/m3] | refractive index | speed of sound [m/s]
[3] | – | 1.4077 | –
[4] | 810.96 | – | 1273.3

Settings | vapor or sublimation pressure [kPa]
[4], 410.59 K | 101.3

CCO [ethanol]
Settings | mass density [kg/m3] | refractive index | speed of sound [m/s]
[3] | – | 1.35916 | –
[4] | 785.36 | – | 1143.1

Settings | vapor or sublimation pressure [kPa]
[4], 351.5 K | 101.3

CCOC(C)=O [ethyl acetate]
Settings | mass density [kg/m3] | refractive index | speed of sound [m/s]
[3] | – | 1.3698 | –
[4] | 894.24 | – | 1137.7

Settings | vapor or sublimation pressure [kPa]
[4], 350.25 K | 101.3

CCCCCO [pentan-1-ol] + CCOC(C)=O
Settings | mass density, [2] [kg/m3] | refractive index, [1] | speed of sound, [2] [m/s]
x2 = 0.05 | 814.16 | 1.40579 | 1263.5
x2 = 0.101 | 817.63 | 1.40382 | 1253.8
x2 = 0.15 | 821.07 | 1.40193 | 1245
x2 = 0.2 | 824.6 | 1.40012 | 1236.5
x2 = 0.251 | 828.3 | 1.39803 | 1227.5
x2 = 0.3 | 831.9 | 1.39629 | 1219.9
x2 = 0.35 | 835.73 | 1.39423 | 1211.9
x2 = 0.4 | 839.69 | 1.3925 | 1204.5
x2 = 0.45 | 843.69 | 1.39052 | 1198.2
x2 = 0.5 | 847.81 | 1.38863 | 1190.5
x2 = 0.549 | 851.89 | 1.38676 | 1184.1
x2 = 0.599 | 856.06 | 1.38493 | 1178.8
x2 = 0.65 | 860.53 | 1.38303 | 1172.1
x2 = 0.7 | 865.01 | 1.38107 | 1166.8
x2 = 0.749 | 869.4 | 1.37919 | 1161.7
x2 = 0.8 | 874.19 | 1.37733 | 1157.1
x2 = 0.85 | 879 | 1.37548 | 1152.2
x2 = 0.898 | 883.69 | 1.3736 | 1148
x2 = 0.947 | 888.68 | 1.37188 | 1144.1

CC(C)CO [2-methyl-1-propanol]
Settings | mass density [kg/m3] | refractive index | speed of sound [m/s]
[3] | – | 1.3937 | –
[4] | 797.84 | – | 1185.6

Settings | vapor or sublimation pressure [kPa]
[4], 381 K | 101.3
